The text below walks through data of ChEMBL document CHEMBL5625214, “Synthesis of glycyrrhizin analogues as HMGB1 inhibitors and their activity against sepsis in acute kidney injury” (Eur J Med Chem, 2023).

A short description of series [1]: Cytotoxicity against mouse RAW264.7 cells assessed as cell survival at 30 uM incubated for 24 hrs by MTT assay relative to control. The settings on record: read-out: Activity. The format is toxicity, cell-based. (Formazan colour is commonly taken as a measure of viable cells.)
In series [2] the test system is A549. Description: Cytotoxicity against human A549 cells assessed as inhibition of cell viability incubated for 24 hrs by MTT assay. The format is functional, cell-based. The following applies: A549, 24 h.
A short description of series [3]: Cytotoxicity against rat H9c2 cells assessed as inhibition of cell viability incubated for 24 hrs by MTT assay. The format is toxicity, cell-based.
The nature of series [4]: Cytotoxicity against human WI-38 cells assessed as inhibition of cell viability incubated for 24 hrs by MTT assay. The format is toxicity, cell-based.
A short description of series [5]: Cytotoxicity against mouse RAW264.7 cells assessed as cell survival at 60 uM incubated for 24 hrs by MTT assay relative to control. The settings on record: read-out: Activity. The format is toxicity, cell-based.
For series [6], the system named is Huh-7. Nature of the series: Cytotoxicity against human Huh-7 cells assessed as inhibition of cell viability incubated for 24 hrs by MTT assay. The format is functional, cell-based. The following applies: Huh-7, 24 h.
The subject of series [7] is RAW264.7. Description: Inhibition of NO release in mouse RAW264.7 cells incubated for 24 hrs by Griess reagent based assay. The format is functional, cell-based. The settings on record: RAW264.7, 24 h. On the technique in general: The Griess reaction detects nitrite, a stable product of nitric oxide.
Series [8] can be described thus: Cytotoxicity against human HK-2 cells assessed as inhibition of cell viability incubated for 24 hrs by MTT assay. The format is toxicity, cell-based.
Series [9] has as its system Mus musculus. Nature of the series: Anti-septic activity in C57BL/6 mouse model assessed as reversal of LPS-induced inflammatory cell infiltration in renal interstitium at 15 mg/kg, ip qd treated for 7 days by H and E staining based analysis. The format is functional, organism-based. The following applies: time 7.0 day.
Series [10] deals with Mus musculus. Nature of the series: Anti-septic activity in C57BL/6 mouse model assessed as reversal of LPS-induced inflammatory cell infiltration in renal interstitium at 30 mg/kg, ip qd treated for 7 days by H and E staining based analysis. The format is functional, organism-based. The following applies: time 7.0 day.
In series [11] the test system is Mus musculus. Description: Anti-septic activity in C57BL/6 mouse model assessed as reversal of LPS-induced damage of renal tubules at 15 to 30 mg/kg, ip qd treated for 7 days by H and E staining based analysis. The format is functional, organism-based. The settings on record: dose 15-30 mg/kg, time 7.0 day.
Series [12] deals with Mus musculus. Description: Anti-septic activity in C57BL/6 mouse model assessed as reversal of LPS-induced kidney injury at 30 mg/kg, ip qd treated for 7 days by H and E staining based analysis. The format is functional, organism-based. The settings on record: time 7.0 day.
Series [13] has as its system Mus musculus. Nature of the series: Anti-septic activity in C57BL/6 mouse model assessed as reversal of LPS-induced accumulation of interstitial vacoules in kidney at 30 mg/kg, ip qd treated for 7 days by H and E staining based analysis. The format is functional, organism-based. The settings on record: time 7.0 day.
Series [14] concerns Mus musculus. Nature of the series: Anti-septic activity in C57BL/6 mouse model assessed as reversal of LPS-induced disappearance of renal internal brush border structure at 30 mg/kg, ip qd treated for 7 days by H and E staining based analysis. The format is functional, organism-based. The settings on record: time 7.0 day.
The test system of series [15] is Mus musculus. Nature of the series: Anti-septic activity in C57BL/6 mouse model assessed as reversal of LPS-induced kidney injury at 15 mg/kg, ip qd treated for 7 days by H and E staining based analysis. The format is functional, organism-based. The following applies: time 7.0 day.

The source made the active and inactive calls. The rule behind the calls is not given here.

Turning to `CC(=O)OC[C@@H]1OC(n2cc(COC(=O)[C@@]3(C)CC[C@]4(C)CC[C@]5(C)C(=CC(=O)[C@@H]6[C@@]7(C)CC[C@H](OC(=O)CCc8ccccc8)C(C)(C)C7CC[C@]65C)[C@H]4C3)nn2)[C@@H](OC(C)=O)[C@H]1OC(C)=O` (stereo partly specified), the viability at 24 h, 30 µM in [1] was > 70%. For the same compound, the figures for the half-maximal inhibitory concentration (IC50) in series [2], in series [6] and in [7] were 92.8 µM, 91.3 µM and 46.2 µM, respectively. Also, the IC50 at 24 h worked out at 330 µM in series [3], 348 µM in series [4] and 557 µM in [8]. Moreover, the viability at 24 h, 60 µM in [5] is < 70%.
With `CC(=O)OC[C@@H]1OC(n2cc(COC(=O)[C@@]3(C)CC[C@]4(C)CC[C@]5(C)C(=CC(=O)[C@@H]6[C@@]7(C)CC[C@H](OC(=O)CCc8ccccc8)C(C)(C)C7CC[C@]65C)[C@H]4C3)nn2)[C@H](OC(C)=O)[C@H](OC(C)=O)[C@@H]1OC(C)=O` (stereo partly specified), the viability at 24 h, 30 µM in series [1] is > 70%. For the same compound, the IC50 was 108 µM in [2], 174 µM in series [6] and 40.8 µM in [7]. The IC50 at 24 h is > 800 µM in series [3], 590 µM in series [4] and > 800 µM in series [8].
With `COC(=O)[C@@]1(C)CC[C@]2(C)CC[C@]3(C)C(=CC(=O)[C@@H]4[C@@]5(C)CC[C@H](OCc6cn(C7O[C@H](COC(C)=O)[C@@H](OC(C)=O)[C@H]7OC(C)=O)nn6)C(C)(C)C5CC[C@]43C)[C@H]2C1` (stereo partly specified), the figures for the half-inhibitory concentration (IC50) in series [2] and in series [6] were 27.8 µM and 30.1 µM, respectively. For the same compound, the 50% inhibitory concentration (IC50) at 24 h in series [3] stood at 77 µM; in series [4] it was 93.9 µM; in series [8] it was 59.7 µM.
The matching figures for `COC(=O)[C@@]1(C)CC[C@]2(C)CC[C@]3(C)C(=CC(=O)[C@@H]4[C@@]5(C)CC[C@H](OCc6cn(C7O[C@H](COC(C)=O)[C@@H](OC(C)=O)[C@H](OC(C)=O)[C@H]7OC(C)=O)nn6)C(C)(C)C5CC[C@]43C)[C@H]2C1` (stereo partly specified): 32.7 µM, 23.5 µM, 87.8 µM, 105 µM and 56.1 µM.
The matching figures for `COC(=O)[C@@]1(C)CC[C@]2(C)CC[C@]3(C)C(=CC(=O)[C@@H]4[C@@]5(C)CC[C@H](OCc6cn(C7O[C@H](COC(C)=O)[C@H](OC(C)=O)[C@H](OC(C)=O)[C@H]7OC(C)=O)nn6)C(C)(C)C5CC[C@]43C)[C@H]2C1` (stereo partly specified): 39.4 µM, 28 µM, 92.4 µM, 96.4 µM and 42.2 µM.
As to `CC(=O)OC[C@@H]1OC(n2cc(COC(=O)[C@@]3(C)CC[C@]4(C)CC[C@]5(C)C(=CC(=O)[C@@H]6[C@@]7(C)CC[C@H](OC(=O)CCc8ccccc8)C(C)(C)C7CC[C@]65C)[C@H]4C3)nn2)[C@@H](OC(C)=O)[C@H](OC(C)=O)[C@@H]1OC(C)=O` (stereo partly specified), the 50% inhibitory concentration (IC50) in [2] is 93.4 µM; in [6] it was 86.2 µM; in [7], 22.8 µM. The IC50 at 24 h amounted to 114 µM in series [3], 201 µM in series [4] and 127 µM in series [8]. Further, in [5], the viability at 24 h, 60 µM is < 70%.
For `CC1(C)[C@@H](O[C@H]2O[C@H](C(=O)O)[C@@H](O)[C@H](O)[C@H]2O[C@@H]2O[C@H](C(=O)O)[C@@H](O)[C@H](O)[C@H]2O)CC[C@]2(C)[C@H]3C(=O)C=C4[C@@H]5C[C@@](C)(C(=O)O)CC[C@]5(C)CC[C@@]4(C)[C@]3(C)CC[C@@H]12` [GLYCYRRHIZIN], the viability at 24 h, 30 µM in series [1] was > 70%. Also, the outcome in series [9] and in [15] was inactive. In addition, the values for the IC50 in series [2], in [6] and in series [7] were 80.3 µM, 65.7 µM and 20.7 µM, respectively. For the same compound, the result in [10], in series [11], in series [12], in series [13] and in [14] was Active. The concentration for half-maximal inhibition (IC50) at 24 h in [3] was 102 µM; in [4], 128 µM; in [8] it was 160 µM.
For `CC(=O)OC[C@@H]1OC(n2cc(COC(=O)[C@@]3(C)CC[C@]4(C)CC[C@]5(C)C(=CC(=O)[C@@H]6[C@@]7(C)CC[C@H](OC(=O)CCc8ccccc8)C(C)(C)C7CC[C@]65C)[C@H]4C3)nn2)[C@@H](OC(C)=O)[C@H](OC(C)=O)[C@H]1OC(C)=O` (stereo partly specified), in series [1], the viability at 24 h, 30 µM was > 70%. Further, the concentration for half-maximal inhibition (IC50) in series [2] was 207 µM; in series [6] it was 206 µM; in [7], 30.7 µM. Besides, the figures for the half-inhibitory concentration (IC50) at 24 h in series [3], in [4] and in series [8] were 294 µM, > 800 µM and 398 µM, respectively.
For the compound `COC(=O)[C@@]1(C)CC[C@]2(C)CC[C@]3(C)C(=CC(=O)[C@@H]4[C@@]5(C)CC[C@H](OCc6cn(C7O[C@H](COC(C)=O)[C@@H](OC(C)=O)[C@H](OC(C)=O)[C@@H]7OC(C)=O)nn6)C(C)(C)C5CC[C@]43C)[C@H]2C1` (stereo partly specified), the IC50 in series [2] amounted to 23.1 µM; in [6], 19.7 µM. Also, the results for the IC50 at 24 h in series [3], in series [4] and in [8] were 65.3 µM, 89.4 µM and 57.2 µM, respectively.
Turning to `CC(=O)O[C@H]1[C@H](C)OC(n2cc(COC(=O)[C@@]3(C)CC[C@]4(C)CC[C@]5(C)C(=CC(=O)[C@@H]6[C@@]7(C)CC[C@H](OC(=O)CCc8ccccc8)C(C)(C)C7CC[C@]65C)[C@H]4C3)nn2)C[C@@H]1OC(C)=O` (stereo partly specified), the viability at 24 h, 30 µM in series [1] is > 70%. The IC50 in series [2] was 100 µM; in series [6] it was 112 µM; in series [7], 30.8 µM. Besides, the IC50 at 24 h in series [3] was 406 µM; in [4], > 800 µM; in series [8], > 800 µM. Besides, the viability at 24 h, 60 µM in series [5] was < 70%.

As usually defined, the IC50 is the concentration that inhibits the measured activity by half.
